Results from patent US20240382518A1, “PHARMACEUTICAL COMPOSITION AND HEALTH FUNCTIONAL FOOD FOR PREVENTION OR TREATMENT OF OSTEOARTHRITIS” (SEOUL NATIONAL UNIVERSITY R&DB FOUNDATION, priority 2021, published 2024).

What was measured:
[1] = tested on: SEPHS1 knockout mouse-derived chondrocytes; assay: DNA damage (γ-H2AX foci) in SEPHS1 knockout mouse-derived chondrocytes; format: cell-based; details: after NAC treatment
Experimental: (§1) For primary culture of mouse articular chondrocytes, cells derived from femoral condyle and tibial plateaus of 5-day-old ICR mice were isolated. Chondrocytes were cultured in DMEM medium containing 10% FBS (Gibco), 100 units/mL of penicillin, and 100 μg/mL of streptomycin. After 2 days, cells were treated according to the purpose of each experiment. The cultured cells were maintained at 37° C. under 5% CO2 and 3% O2 conditions. In addition, DNA damage and senescence-associated β-galactosidase (SA-β-gal) activity were measured to determine the relationship between SEPHS1 deficiency and cellular senescence. […] In order to determine whether the DNA damage and the increase in SA-β-gal activity caused by SEPHS1 inhibition were caused by the accumulation of ROS, SEPHS1 knockout mouse-derived chondrocytes were additionally treated with N-acetylcysteine (NAC), followed by repeatedly performing the same experiment. As a result, it was confirmed that DNA damage caused by SEPHS1 inhibition and the increase in SA-β-gal activity were reduced after NAC treatment (FIGS. 3P to 3S).

[2] = tested on: SEPHS1 knockout mouse-derived chondrocytes; assay: senescence-associated β-galactosidase (SA-β-gal) activity in SEPHS1 knockout mouse-derived chondrocytes; format: cell-based; details: after NAC treatment
Experimental: as §1

[3] = tested on: SEPHS1-iCKO mice; assay: post-traumatic osteoarthritis (DMM surgery) in SEPHS1-iCKO mice with NAC or selenate in drinking water; format: in vivo, mouse; details: for osteoarthritis phenotype of SEPHS1-iCKO mice: drinking water with NAC 1 mg/mL or sodium selenate 1 ppm, from 5 days prior to DMM
Experimental: Selenate supplementation or NAC treatment was performed by supplying mice with drinking water in which sodium selenate (1 ppm) or NAC (1 mg/mL) was dissolved. Further, to Sephs1-iCKO mice, NAC, selenate or vehicle was supplemented 5 days prior to DMM surgery.
Posttraumatic osteoarthritis (OA) was induced by executing DMM surgery in 12-week-old (WT C57BL/6) or 13-week-old (SEPHS1^fl/fl or SEPHS1^fl/fl; Col2a1-CreER^T2) mice, and mice (sham) without DMM after incision were used as a control. These mice were sacrificed 6 or 8 weeks after DMM or sham surgery.
As an aging-associated OA model, 24-month-old C57BL/6 male mice were used for histological analysis and 3-month-old mice were used as a control. The extent of cartilage degeneration in the knee joint was assessed by safranin-O staining and scored using the OARSI grading system.

CC(=O)N[C@@H](CS)C(=O)O [NAC, N-acetylcysteine]
DNA damage caused by SEPHS1 inhibition [1]: reduced
increase in SA-β-gal activity [2]: reduced
weight imbalance between the operated legs and the other legs without operation ([3]; SEPHS1-iCKO mice, NAC 1 mg/mL in drinking water): alleviated
osteoarthritis phenotype of SEPHS1-iCKO mice [3]: alleviated

O=[Se](=O)([O-])[O-].[Na+].[Na+] [selenate, sodium selenate]
osteoarthritis phenotype of SEPHS1-iCKO mice [3]: did not restore
